Measurements taken from publication PMC9246869, “Allosteric inhibition of PPM1D serine/threonine phosphatase via an altered conformational state” (Nature Communications, 2022).
“And” between values parts separate entries of the source, which are not always exact repeats. Equal values may be shown once. Read-outs that look alike come from different tables or passages of the source.

Tests used:
[1] = molecular target: T1, PPM1DΔhinge (Homo sapiens, UniProt O15297, DEL155-163/G166S/M164G/T165G); test: FDP (fluorescein diphosphate) enzymatic assay; format: biochemical; conditions: for FDP Assay, signal relative to 0 nM GSK (=100): PPM1DΔHinge, individual runs, listed as GSK
T1 construct: PPM1D1–154-GGS-167–420 (PPM1D∆hinge); His(6)-SUMO (N, cleaved yes); made in house; host or cells: E. coli BL21 (DE3)
T1 sequence (O15297 with tags, fused parts or gaps DEL155-163/M164G/T165G/G166S): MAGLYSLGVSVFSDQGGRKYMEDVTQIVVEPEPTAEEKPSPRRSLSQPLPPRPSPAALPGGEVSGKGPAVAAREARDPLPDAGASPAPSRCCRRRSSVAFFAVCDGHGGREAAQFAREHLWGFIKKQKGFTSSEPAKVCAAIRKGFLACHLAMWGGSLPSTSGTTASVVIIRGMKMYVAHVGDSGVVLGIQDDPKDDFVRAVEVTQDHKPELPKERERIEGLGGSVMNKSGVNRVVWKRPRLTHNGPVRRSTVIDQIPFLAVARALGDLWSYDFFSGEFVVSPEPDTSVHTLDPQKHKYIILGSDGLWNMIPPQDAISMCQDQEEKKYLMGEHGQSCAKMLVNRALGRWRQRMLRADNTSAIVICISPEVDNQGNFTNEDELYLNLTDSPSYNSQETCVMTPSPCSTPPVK
Description: The FDP assay was adapted from reported protocol with minor modifications. Fluorescein diphosphate tetra-ammonium salt (CAS 217305-49-2) was purchased from AAT Bioquest (Cat No.11600). The assay was carried out on a 384-well plate (Corning Cat No.3575) with assay buffer containing 50 mM Tris (pH 7.5), 50 mM NaCl, 30 mM MgCl2, 0.01% tween 20, and 2% DMSO. Reactions were initiated with the addition of FDP to a solution containing wild-type PPM1D or one of its variants, to a final concentration of 5 nM for PPM1D and 100 μM for FDP (or as indicated in Kcat/KM measurements). A fluorescent signal was detected on a Spectramax microplate reader (485/530 nm) for the next 15 min at room temperature with an interval for data collection of 45 s. For the IC50 measurement, the compound was pre-incubated with PPM1D for 1 h before addition of the substrate.

[2] = molecular target: T2, PPM1D1–420 (Homo sapiens, UniProt O15297); test: Surface plasmon resonance (SPR); format: binding; conditions: for Kd: read-out: KD
T2 construct: PPM1D1–420 was PCR-amplified from the synthesized gene with BsaI sites; His(6)-SUMO (N, cleaved yes); made in house; host or cells: E. coli BL21 (DE3)
T2 sequence (O15297 1-420): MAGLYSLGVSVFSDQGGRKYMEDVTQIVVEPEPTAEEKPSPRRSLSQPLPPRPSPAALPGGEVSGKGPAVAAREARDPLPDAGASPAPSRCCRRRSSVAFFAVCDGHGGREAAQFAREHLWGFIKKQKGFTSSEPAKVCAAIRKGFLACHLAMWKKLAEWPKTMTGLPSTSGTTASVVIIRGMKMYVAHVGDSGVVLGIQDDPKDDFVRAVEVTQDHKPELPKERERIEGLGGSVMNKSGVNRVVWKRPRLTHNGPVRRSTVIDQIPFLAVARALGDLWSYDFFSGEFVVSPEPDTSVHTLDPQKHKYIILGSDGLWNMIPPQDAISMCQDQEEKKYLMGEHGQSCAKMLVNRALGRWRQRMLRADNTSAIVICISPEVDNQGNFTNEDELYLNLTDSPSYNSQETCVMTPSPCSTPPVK
Description: (§1) SPR was carried out on the Biacore S200 (GE Healthcare) using Series S sensor chip NTA (GE BR-1005-32). The preparation of the chip surface was conducted according to the manufacturer’s indications. The running buffer contained 50 mM Tris (pH 7.5), 50 mM NaCl, 1 mM MgCl2, 0.5 mM TCEP, 0.005% (v/v) P20 surfactant, and 2% DMSO. PPM1D1–420 and PPM1D∆Flap were run under single-cycle mode due to the slow-off-rate kinetics. The two proteins were immobilized on the chip surface in flow cells 2 and 3 with a signal of ~1500–2000 RU at a rate of 5 μL/min while flow cell 1 was left blank as a reference. The running buffer was injected three times followed by the GSK2830371 analyte in solution. Injections were carried out at a flow rate of 50 μL/min with the analyte in a concentration series of 5-point, 3-fold ending at 400 nM top dose. The association and dissociation phases were monitored for 90 s and 600 s, respectively. Collected data were evaluated using the Biacore S200 Evaluation Software under 1:1 binding mode. PPM1D∆Hinge was run under multi-cycle mode due to its fast-on/fast-off kinetics. The protein was immobilized to give a signal of ~ 3000 RU. GSK2830371 analyte in solution was injected at a flow rate of 90 μL/min in a 10-pt, 2-fold concentration series ending at 15 μM top dose. The association and dissociation phases were monitored for 45 s and 150 s, respectively. Since GSK2830371 had issues with solubility/aggregation at high concentrations that caused artifacts in sensorgrams, only steady-state analysis was performed to extract Kd.

[3] = molecular target: T3, PPM1DΔflap (Homo sapiens, UniProt O15297, DEL219-231/DEL235-284/E287S/S285N); test: Surface plasmon resonance (SPR); format: binding
T3 construct: PPM1D1–218-GGSNGS-288–420 (PPM1D∆flap); His(6)-SUMO (N, cleaved yes); made in house; host or cells: E. coli BL21 (DE3)
T3 sequence (O15297 with tags, fused parts or gaps DEL219-231/DEL235-284/S285N/E287S): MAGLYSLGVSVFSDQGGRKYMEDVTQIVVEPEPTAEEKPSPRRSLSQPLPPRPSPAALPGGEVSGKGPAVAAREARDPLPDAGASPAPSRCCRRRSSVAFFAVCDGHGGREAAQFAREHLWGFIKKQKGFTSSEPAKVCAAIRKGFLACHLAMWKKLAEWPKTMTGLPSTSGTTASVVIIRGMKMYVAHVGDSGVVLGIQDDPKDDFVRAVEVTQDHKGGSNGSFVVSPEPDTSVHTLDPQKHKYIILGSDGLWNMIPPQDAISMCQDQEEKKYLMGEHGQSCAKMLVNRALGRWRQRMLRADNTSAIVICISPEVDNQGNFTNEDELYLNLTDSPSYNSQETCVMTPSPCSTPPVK
Description: as §1

[4] = molecular target: T1, PPM1DΔhinge; test: Surface plasmon resonance (SPR); format: binding
Description: as §1

## Cc1ncc(Cl)cc1NCc1ccc(C(=O)N[C@@H](CC2CCCC2)C(=O)NC2CC2)s1 [GSK2830371]
[1]; PPM1DΔhinge versus PPM1D1–420
  increase of IC50 in FDP assay upon hinge deletion: 100 fold
[1]; [GSK] 9.76562 nM
  FDP Assay, signal relative to 0 nM GSK (=100): 99.774 and 81.7509
[1]; [GSK] 19.5312 nM
  FDP Assay, signal relative to 0 nM GSK (=100): 74.1093 and 82.0598
[1]; [GSK] 39.0625 nM
  FDP Assay, signal relative to 0 nM GSK (=100): 92.7672 and 94.3849
[1]; [GSK] 78.125 nM
  FDP Assay, signal relative to 0 nM GSK (=100): 88.4223 and 95.7187
[1]; [GSK] 156.25 nM
  FDP Assay, signal relative to 0 nM GSK (=100): 86.3292 and 93.2128
[1]; [GSK] 312.5 nM
  FDP Assay, signal relative to 0 nM GSK (=100): 78.7193 and 77.5806
[1]; [GSK] 625 nM
  FDP Assay, signal relative to 0 nM GSK (=100): 74.7657 and 65.5885
[1]; [GSK] 1250 nM
  FDP Assay, signal relative to 0 nM GSK (=100): 60.0936 and 55.4697
[1]; [GSK] 2500 nM
  FDP Assay, signal relative to 0 nM GSK (=100): 47.8958 and 40.0931
[1]; [GSK] 5000 nM
  FDP Assay, signal relative to 0 nM GSK (=100): 6.587 and 19.2353
[1]; [GSK] 10000 nM
  FDP Assay, signal relative to 0 nM GSK (=100): 0.167 and 0.2855
[2]; Fig 3D, Average of 3 trials
  koff: 0.00024 s⁻¹
  kon: 433000 M⁻¹ s⁻¹
  Kd: 1.2 nM
[2]; Fig 3D, individual trials
  koff: 0.00011 s⁻¹ and 0.00028 s⁻¹ and 0.00033 s⁻¹
  kon: 595000 M⁻¹ s⁻¹ and 343000 M⁻¹ s⁻¹ and 362000 M⁻¹ s⁻¹
  Kd: 0.8 nM and 1 nM
[2]; read-out: kon (SPR), PPM1D1–420, Fig. 3D
  kon: 430000 ± 100000 M⁻¹ s⁻¹
[3]; PPM1DΔflap, Fig. 6A
  Kd: 1 nM
[3]; read-out: koff (SPR)
  koff: 0.0045 s⁻¹
[3]; read-out: kon (SPR)
  kon: 5e+06 M⁻¹ s⁻¹
[4]; PPM1DΔhinge versus PPM1D1–420
  decrease in binding affinity by SPR upon hinge deletion: ~ 1000 fold
[4]; PPM1DΔhinge, multi-cycle, steady-state analysis
  Kd: 1000 nM
